Assay [1] concerns mouse peritoneal macrophages. The experiment in a line: Ex vivo IL-6 release from mouse peritoneal macrophages with E. coli-derived extracellular vesicles. Type of assay: cell-based. The note with it: 10 μM prodrug. As for the experimental part: FIG. 41 is a graph showing IL-6 levels obtained by treating mouse peritoneal macrophages with 10 μM prodrugs in the presence of E. coli-derived extracellular vesicles (EC_EV)

Assay [2] has as its system mouse macrophages (RAW 264.7). The assay is described as follows: In vitro screening: extracellular vesicle-induced IL-6 secretion from macrophages. Type of assay: cell-based. The note with it: for activity at 10 µM: Mus musculus, RAW 264.7, vesicles 100 ng/ml.
Assay [3] deals with mouse macrophages (RAW 264.7). Described as above. Type of assay: cell-based. The note with it: RAW264.7, 15 h, read-out: level of IL-6 as percentage of the positive control (kinase inhibitors). As for the experimental part: FIG. 35 is a schematic diagram showing the discovery of substances inhibitory of the gut flora-derived extracellular vesicles-induced release of IL-6. The mouse macrophages (RAW 264.7) were treated for 15 hours with the gut flora-derived extracellular vesicles (100 ng/ml) alone, separated by the method of Example 3, or in combination with a drug candidate (10 μM), in a 37° C. incubator. The culture media was collected and centrifuged at 4° C., 500×g for 10 min and then at 4° C., 3000×g for 20 min. IL-6 in the supernatant was quantitatively analyzed by ELISA. These processes account, at least in part, for a method for in vitro screening drug candidates inhibitory of the gut flora-derived extracellular vesicle-induced secretion of IL-6, by which drug candidates preventive or therapeutic of gut flora-derived extracellular vesicles-caused diseases can be provided.
According to the method established in Example 12, mouse macrophages (RAW 264.7) were treated with neither extracellular vesicles nor any drug candidate (negative control), with E. coli-derived extracellular vesicles (0.1 μg/ml) alone (positive control) or with the extracellular vesicles (0.1 μg/ml) in combination with 10 μM of one selected from among 80 different kinase inhibitors ((kinase inhibitor library, BIOMOL No. 2832: PD-98059, U-0126, SB-203580, H-7, H-9, AG-494, AG-825, Lavendustin A, RG-14620, Tytphostin 23, Tytphostin 25, Tytphostin 46, Tytphostin 47, Tytphostin 51, Tytphostin 1, Tytphostin 9, Tytphostin AG 1288, Tytphostin AG 1478, Tytphostin AG 1295, HNMPA, Damnacanthal, Piceatannol, AG-490, AG-126, AG-370, AG-879, LY 294002, Wortmannin, GF 109203X, Hypericin, Sphingosine, H-89, H-8, HA-1004, HA-1077, HDBA, KN-62, KN-93, ML-7, ML-9, 2-Aminopurine, N9-Isopropyl-olomoucine, Olomoucine, iso-olomoucine, Roscovitine, LFM-A13, SB-202190, ZM 336372, SU 4312, AG-1296, Rottlerin, Genistein, Daiazein, Erbstatin analog, Quercetin dehydrate, SU 1498, ZM 449829, DRB (5,6-Dichloro-1-b-D-ribofuranosylbenzimidazole), HBDDE (2,2′,3,3′,4,4′-Hexahydroxy-1,1′-biphenyl-6,6′-dimethanol dimethyl ether), Indirubin, Indirubin-3′-monoxime, Y-27632, Kenpaullone, Terreic acid, BML-257, BML-259, Apigenin, BML-265 (Erlotinib analog), Rapamycin). After 15 hours of treatment, IL-6 was quantitatively analyzed by ELISA.

Another assay deals with C57BL/6 mice. The assay is described as follows: In vivo serum IL-6 in extracellular vesicle-induced sepsis mouse model. The settings on record: 10 mg/kg i.p.; vesicles 5 μg i.p.; 6 hours; ELISA. Here is the method: In vivo assay was performed to examine whether the prodrugs discovered in Example 15 exert anti-inflammatory effects in the body. To this end, the sepsis mouse models that were established by the intraperitoneal injection of 5 μg of E. coli-derived extracellular vesicles into C57BL/6 mice (male, 6 weeks old, 4 mice in each group) as in Example 6 was intraperitoneally injected with Haloperidol and Doxepein at a dose of 10 mg/kg, each. Sera were taken 6 hours later.
A general note: An ELISA detects its analyte on a solid surface through an enzyme-linked reagent.

Assay [4] concerns mouse macrophages (RAW 264.7). The assay is described as follows: IL-6 secretion from macrophages treated with extracellular vesicles from small intestinal fluid. Type of assay: cell-based. The settings on record: RAW 264.7, ELISA, versus vesicles alone. An excerpt:
Extracellular vesicles were separated from small intestinal fluids of normal mice and DSS-induced mouse model of […]. To this end, mice were operated on to excise the small intestine. The peyer's patch and liquid were removed from the excised small intestine which was then cut at regular lengths of about 5 cm. The intestinal pieces were transversely cut and washed with physiological saline to remove impurities therefrom. They were again cut into pieces with dimensions of 1 cm×1 cm and vortexed five times for five sec per time in 30 mL of physiological saline. After the removal of intestinal tissues and impurities by centrifugation, the supernatant was ultra-centrifuged to separate extracellular vesicles.
FIGS. 3 and 4 show the secretion of the inflammatory cytokine IL-6 in mouse macrophages (RAW 264.7) treated with various concentrations of the extracellular vesicles separated from the small intestinal fluids of normal mice and DSS-induced mouse models of IBD.
FIG. 5 provides the results after an experiment was done to see whether the exracellular vesicles from the DSS-induced mouse model of IBD contained those derived from Gram-negative bacteria.

Setting [5] is: RAW264.7, 15 h, read-out: IL-6 level as percentage of the positive control (prodrugs).

The text below walks through data of patent US9274109B2, “Gut flora-derived extracellular vesicles, and method for searching for a disease model, vaccine, and candidate drug and for diagnosis using the same” (AEON MEDIX INC., priority 2009, dated 2016).

Counter-ions that a name gives are not always drawn. Like-named read-outs stand apart in the source and are kept apart here. Where only a bound is given, the exact number is not on record here.

Consider `CN(C)CCC=C1c2ccccc2CCc2ccccc21` [Amitriptyline], for which, in assay [1], the “IL-6 release from mouse peritoneal macrophages” value (“IL-6 release” below) is on record as “inhibitory effect”. Further, in assay [2] (setting [5]), the activity at 10 µM is < 80%.
`O=c1cc(-c2ccc(O)cc2)oc2cc(O)cc(O)c12` [Apigenin, 5,7-dihydroxy-2-(4-hydroxyphenyl)chromen-4-one]: the activity at 10 µM in assay [3] was < 50%.
Still for that read-out and setting: the figure for `CC(C)c1cnc(NC(=O)Cc2ccccc2)s1` [BML-259, N-(5-Isopropylthiazol-2-yl)phenylacetamide] is < 50%.
Take `CN(C)CCC=C1c2ccccc2C=Cc2ccccc21` [Cyclobenzaprine]: in assay [1], the “IL-6 release” value is recorded as “inhibitory effect”. The activity at 10 µM in assay [2] (setting [5]) was < 80%.
On to `OC[C@H]1O[C@H](n2cnc3cc(Cl)c(Cl)cc32)[C@@H](O)[C@H]1O` [DRB, (2S,3S,4R,5R)-2-(5,6-dichlorobenzimidazol-1-yl)-5-(hydroxymethyl)oxolane-3,4-diol], for which the activity at 10 µM in assay [3] is < 50%.
As for `CNCCCN1c2ccccc2CCc2ccccc21` [Desipramine], the “IL-6 release” value in assay [1] was “inhibitory effect”. Further, the activity at 10 µM in assay [2] (setting [5]) was < 80%.
As for `CN(C)CCC=C1c2ccccc2COc2ccccc21` [Doxepin], in assay [1], the “IL-6 release” value is reported as “inhibitory effect”. Further, in the assay on C57BL/6 mice, the “serum IL-6 level” value is “effectively suppressed”. Further, the activity at 10 µM in assay [2] (setting [5]) is < 80%.
As for `Cl.Cl.OCCN1CCN(CCCN2c3ccccc3Sc3ccc(C(F)(F)F)cc32)CC1` [Fluphenazine dichloride], the “IL-6 release” value in assay [1] is reported as “inhibitory effect”.
As for `CN(C)CCCn1cc(C2=C(c3c[nH]c4ccccc34)C(=O)NC2=O)c2ccccc21` [GF109203X, 3-[1-[3-(dimethylamino)propyl]indol-3-yl]-4-(1H-indol-3-yl)pyrrole-2,5-dione], the activity at 10 µM in assay [3] is < 50%.
On to `CC1CNCCN1S(=O)(=O)c1cccc2cnccc12` (centres unmarked) [H-7, 5-(2-methylpiperazin-1-yl)sulfonylisoquinoline dihydrochloride], for which the activity at 10 µM in assay [3] is < 50%.
Turning to `O=C(CCCN1CCC(O)(c2ccc(Cl)cc2)CC1)c1ccc(F)cc1` [Haloperidol], the “IL-6 release” value in assay [1] was “inhibitory effect”. Further, in the assay on C57BL/6 mice, the “serum IL-6 level” value is reported as “effectively suppressed”. Moreover, the activity at 10 µM in assay [2] (setting [5]) is < 80%.
Turning to `CN(C)CCCN1c2ccccc2CCc2ccccc21` [Imipramine], the “IL-6 release” value in assay [1] is listed as “inhibitory effect”. Besides, the activity at 10 µM in assay [2] (setting [5]) was < 80%.
As for `O=C1N=c2ccccc2=C1c1[nH]c2ccccc2c1NO` [Indirubin-3′monoxime, 3-[3-(hydroxyamino)-1H-indol-2-yl]indol-2-one], in assay [3], the activity at 10 µM was < 50%.
Same read-out and setting: then `O=C1Cc2c([nH]c3ccc(Br)cc23)-c2ccccc2N1` [Kenpaullone, 9-bromo-7,12-dihydro-5H-indolo[3,2-d][1]benzazepin-6-one], with < 50%.
Still for that read-out and setting: the figure for `O=c1cc(N2CCOCC2)oc2c(-c3ccccc3)cccc12` [LY294002, 2-morpholin-4-yl-8-phenylchromen-4-one] is < 50%.
For `O=S(=O)(c1cccc2c(I)cccc12)N1CCCNCC1` [ML-7, 1-(5-iodonaphthalen-1-yl)sulfonyl-1,4-diazepane hydrochloride], the activity at 10 µM in assay [3] was < 50%.
Still for that read-out and setting: then `O=S(=O)(c1cccc2c(Cl)cccc12)N1CCCNCC1` [ML-9, 1-(5-chloronaphthalen-1-yl)sulfonyl-1,4-diazepane hydrochloride], with < 50%.
Turning to `CNCCCC12CCC(c3ccccc31)c1ccccc12` [Maprotiline], the “IL-6 release” value in assay [1] is given as “inhibitory effect”. In assay [2] (setting [5]), the activity at 10 µM is < 80%.
The matching figures for `Cc1ccccc1C(OCCN(C)C)c1ccccc1` (centres unmarked) [Orphenadrine]: “inhibitory effect” and < 80%.
On to `COc1ccc2c(c1)c(OC(C)C)c(C(N)=O)[s+]2[O-]` (centres unmarked) [PD-144795, 5-methoxy-3-(1-methylethoxy)benzo(b)thiophene-2-carboxamide-1-oxide], for which the “IL-6 secretion at graded concentrations” value in assay [2] (0.1, 1, 5, 10 μM, vesicles 100 ng/ml) was “inhibits IL-6 secretion in a dose-dependent manner”. Also, the activity at 10 µM in assay [2] (RAW264.7, 10 μM, read-out: IL-6 level as percentage of the positive control (phosphatase inhibitors)) is < 50%.
For `CC(C)(C)c1ccc(C(O)CCCN2CCC(C(O)(c3ccccc3)c3ccccc3)CC2)cc1` (centres unmarked) [Terfenadine], the “IL-6 release” value in assay [1] is “inhibitory effect”. In assay [2] (setting [5]), the activity at 10 µM was < 80%.
The matching figures for `Cc1c(Cl)cccc1Nc1ccccc1C(=O)O` [Tolfenamic acid]: “inhibitory effect” and < 80%.
The matching figures for `O=c1n(CCCN2CCN(c3cccc(Cl)c3)CC2)nc2ccccn12` [Trazodone]: “inhibitory effect” and < 80%.
For `NS(=O)(=O)c1cc2c(cc1Cl)NC(C(Cl)Cl)NS2(=O)=O` (centres unmarked) [Trichlormethiazide], the activity at 10 µM in assay [2] (setting [5]) is < 80%.
In the case of `COc1ccc(CCN(C)CCCC(C#N)(c2ccc(OC)c(OC)c2)C(C)C)cc1OC` (centres unmarked) [Verapamil], the activity at 10 µM in assay [2] (setting [5]) was < 80%.
As to `C=CC(=O)c1ccc2ccccc2c1` [ZM449829, 1-(2-Naphthalenyl)-2-propen-1-one], in assay [3], the activity at 10 µM is < 50%.
Take polymyxin B: the “secretion of IL-6 induced by extracellular vesicles from DSS-induced IBD mice, in combination with polymyxin B” value in assay [4] is given as “decreased”.
